The text below walks through data of patent US20240299554A1, “PRODRUGS WITH 1-(DISULFANYL)ALKYLOXY-CARBONYL UNITS” (PHARMACYTICS B.V., priority 2021, published 2024).

Series [1] can be described thus: Oral bioavailability of conjugates in female Beagle dogs (AUC of parent drug). It counts as in vivo. The settings on record: for Δ AUC (increase of AUC of parent drug derived from conjugate compared to parent drug as such): female Beagle dogs, single oral dose 7.5 or 15 μmol/kg by gavage, 24 h sampling, Table 1a; for generation of parent drug after oral administration: oral administration to beagle dogs. On the procedure: Relative and absolute bioavailability may be determined in different animal models and according to different protocols. The following protocol is typical for determining bioavailability in female Beagle dogs and was used in the present invention. The animals were deprived from food over a time period of 8 h prior to administration of the compounds according to the present invention and over a time period of 2 h after administration of the compounds according to the present invention. Water was supplied without limitation. On the study day, the animals received the compounds according to the present invention, at a single dose of 7.5 or 15 μmol/kg, by oral gavage, formulated in mixtures of propylene glycol, ethanol and 0.9% NaCl+5% mannitol in water. Blood samples were collected from the jugular vein on the following time points: 0.25, 0.5, 1, 2, 4, 8 and 24 hours after dosing of the compounds according to the present invention. […] Pharmacokinetic parameters were calculated from concentration versus time data using non-compartmental pharmacokinetic methods using Phoenix pharmacokinetic software. Data are compared to the parent drugs to establish improvement of its oral bioavailability by the compounds according to the present invention.

A short description of series [2]: In vitro treatment of conjugates with glutathione, release of parent drug followed by LC-MS at 254 nm. It counts as in vitro ADME. The settings on record: for fate of glutathione adduct formed during glutathione treatment: adduct formed in situ from the conjugate; for formation of parent drug on in vitro treatment with glutathione: glutathione 5 eq., phosphate buffer pH=7.6, 37° C. (for 102). The source says:
FIGS. 1A and 1B are graphs showing the release of the drug Cinacalcet after an in vitro treatment of Cinacalcet conjugate 102 (not according to the invention) with glutathione. […] FIG. 1B represent the concentration of Cinacalcet conjugate 102 and Cinacalcet versus time. The presence of the compounds was followed at 254 nm by LC-MS.
FIGS. 3A and 3B are graphs showing the release of the drug Cinacalcet after an in vitro treatment of Cinacalcet conjugate 60 (according to the invention) with glutathione. […] FIG. 3B represent the concentration of Cinacalcet conjugate 60 and Cinacalcet versus time. The presence of the compounds was followed at 254 nm by LC-MS.
The results are shown in FIGS. 1A and B. In FIG. 1A is shown the disappearance of conjugate 102 over time after treatment with glutathione, the formation of Cinacalcet and the appearance and partial disappearance of an intermediate (HS-Et-Cinacalcet) and a glutathione adduct (GSS—Et-Cinacalcet)—see below.

On to `C[C@H](c1cccc2ccccc12)N(CCCc1cccc(C(F)(F)F)c1)C(=O)OCSSCCNC(=O)O[C@@H]1O[C@H](CO)[C@@H](O)[C@H](O)[C@H]1O` [Compound 90], for which the “Δ AUC (increase of AUC of parent drug derived from conjugate compared to parent drug as such)” value in series [1] was “+ (+ denotes a 1.1 to 2-fold increase of the AUC compared to parent drug)”.
For `C[C@H](c1cccc2ccccc12)N(CCCc1cccc(C(F)(F)F)c1)C(=O)OCSSC[C@H](NC(=O)CC[C@H](N)C(=O)O)C(=O)NCC(=O)O` [GSS-Me-Cinacalcet], the “fate of glutathione adduct formed during glutathione treatment” value in series [2] was “completely converted into Cinacalcet within one hour”.
For the compound `C[C@H](c1cccc2ccccc12)N(CCCc1cccc(C(F)(F)F)c1)C(=O)OCCSSCCO[C@@H]1O[C@H](CO)[C@@H](O)[C@H](O)[C@H]1O` [Compound 102], the “formation of parent drug on in vitro treatment with glutathione” value (“formation of parent drug” for short) in series [2] was “very slow and incomplete formation of Cinacalcet”. Also, the “conversion of pro-drug into parent drug within 8 hours” value in series [2] (glutathione treatment) is listed as “far from being completely converted into Cinacalcet”. For the same compound, in series [2] (glutathione treatment, 23 hours), the “conversion of pro-drug into parent drug in 23 hours” value is on record as “less than half”. Further, in series [1], the “generation of parent drug after oral administration” value (shortened to “generation of parent drug”) is on record as “did not produce any detectable amount of the drug Cinacalcet”.
In the case of `CCCN(COCCSSCOC(=O)N(CCCc1cccc(C(F)(F)F)c1)[C@H](C)c1cccc2ccccc12)C(=O)O[C@@H]1O[C@H](CO)[C@@H](O)[C@H](O)[C@H]1O` [Compound 92a], the “Δ AUC (increase of AUC of parent drug derived from conjugate compared to parent drug as such)” value in series [1] is “+++ (+++ denotes a >4-fold increase of the AUC compared to the parent drug)”.
As to `CCCN(COCCSSCOC(=O)N(CCCc1cccc(C(F)(F)F)c1)[C@H](C)c1cccc2ccccc12)C(=O)O[C@@H]1O[C@H](CO)[C@H](O)[C@H](O)[C@H]1O` [Compound 93a], the “Δ AUC (increase of AUC of parent drug derived from conjugate compared to parent drug as such)” value in series [1] is “+++ (+++ denotes a >4-fold increase of the AUC compared to the parent drug)”.
In the case of `CN(CC[C@H](Oc1cccc2ccccc12)c1cccs1)C(=O)OCSSC[C@H](NC(=O)CC[C@H](N)C(=O)O)C(=O)NCC(=O)O` [GSS-Me-Duloxetine], the “fate of glutathione adduct formed during glutathione treatment” value in series [2] is on record as “completely converted into Duloxetine within one hour”.
Same read-out and setting: then `C[C@H](c1cccc2ccccc12)N(CCCc1cccc(C(F)(F)F)c1)C(=O)OCCSSC[C@H](NC(=O)CC[C@H](N)C(=O)O)C(=O)NCC(=O)O` [GSS-Et-Cinacalcet], with “somewhat more stable than the mercaptoethyl carbamate”.
With `C[C@H](c1cccc2ccccc12)N(CCCc1cccc(C(F)(F)F)c1)C(=O)OCSSCCO[C@@H]1O[C@H](CO)[C@@H](O)[C@H](O)[C@H]1O` [Compound 60], the “formation of parent drug” value in series [2] was “very fast and complete formation of Cinacalcet”. For the same compound, in series [1], the “Δ AUC (increase of AUC of parent drug derived from conjugate compared to parent drug as such)” value is recorded as “++ (++ denotes a 2 to 4-fold increase of the AUC compared to the parent drug)” and the “generation of parent drug” value is given as “readily resulted in the generation of significant amounts of cinacalcet”.
In the case of `CCCN(COCCSSCOC(=O)N(CCCc1cccc(C(F)(F)F)c1)[C@H](C)c1cccc2ccccc12)C(=O)O[C@@H]1O[C@H](CF)[C@@H](O)[C@H](O)[C@H]1O` [Compound 92b], the “Δ AUC (increase of AUC of parent drug derived from conjugate compared to parent drug as such)” value in series [1] was “+++ (+++ denotes a >4-fold increase of the AUC compared to the parent drug)”.
`CN(CC[C@@H](Oc1cccc2ccccc12)c1cccs1)C(=O)OCCSSCCO[C@@H]1O[C@H](CO)[C@@H](O)[C@H](O)[C@H]1O` [Compound 103]: the “formation of parent drug” value in series [2] is “very slow and incomplete formation of duloxetine”. Besides, in series [2] (glutathione treatment), the “conversion of pro-drug into parent drug within 8 hours” value is “less than half”. Besides, the “generation of parent drug” value in series [1] is on record as “did not produce any detectable amount of Duloxetine”.
In the case of `CN(CC[C@@H](Oc1cccc2ccccc12)c1cccs1)C(=O)OCSSCCO[C@@H]1O[C@H](CO)[C@H](O)[C@H](O)[C@H]1O` [Compound 61], the “formation of parent drug” value in series [2] is “very fast and complete formation of Duloxetine”. In addition, in series [1], the “Δ AUC (increase of AUC of parent drug derived from conjugate compared to parent drug as such)” value is recorded as “++ (++ denotes a 2 to 4-fold increase of the AUC compared to the parent drug)” and the “generation of parent drug” value was “readily resulted in the generation of significant amounts of duloxetine”.
